The nature of this data set: physchem. The conditions noted are these: 20 °C, water, thermodynamic from solid.

In brackets after ≈: the same amount, converted by molar mass.

Usually thermodynamic solubility stands for solubility found after equilibrating the solid with the medium. On to `OCCOCCN1CCN(C2=Nc3ccccc3Sc3ccccc32)CC1` [11-[4-[2-(2-hydroxyethoxy)ethyl]-1-piperazinyl]dibenzo[b,f][1,4]-thiazepine], for which the solubility (thermodynamic) was found to be 3290 µg/mL (≈ 8.58 mM).
